From patent US10369187B2, “Peptide regulators of JNK family kinases” (Vanderbilt University, priority 2017, dated 2019)

What was measured:
[1] = tested on: MKK7-JNK3 module; assay: JNK3 phosphorylation by co-expressed MKK7 in cells; assay type: cell-based, African green monkey; conditions: YFP-T1A co-expressed with MKK7 in COS7 cells
Description: To test whether T1A can promote JNK3 phosphorylation by MKKs in cells, MKK4 or MKK7 was co-expressed with YFP-T1A in COS7 cells, using YFP and full-length arrestin-3 as negative and positive controls, respectively (FIG. 2C).
(§1) COS-7 African green monkey cells were maintained in DMEM supplemented with 10% heat-inactivated FBS (Invitrogen), penicillin, and streptomycin at 37° C. in a humidified incubator with 5% CO2. The cells were plated at 80-90% confluence and transfected using Lipofectamine 2000 (Invitrogen) according to the manufacturer's instructions. Cells were used 48 h post-transfection and serum-starved overnight before experiments.
COS-7 cells were incubated with phosphatase inhibitors (50 mM NaF and 10 mM Na3VO4) in serum-free medium for 15 min at 37° C.; washed with cold PBS; and lysed with SDS lysis buffer containing 1% SDS, 10 mM Tris (pH7.4), 10 mM NaF, 100 μM Na3VO4, 2 mM EDTA, 2 mM benzamidine and 1 mM PMSF. JNKs activity was assayed by Western blotting using an antibody specific for phosphorylated JNK to detect phosphorylated (active) JNKs^17,20,23. […] Protein was measured using the Bio-Rad Coomassie Blue assay. […] Protein bands were detected by enhanced chemiluminescence (ECL, Pierce), followed by exposure to x-ray film. To quantify phospho-JNKs, serial dilutions of anisomycin (1 μg/ml)-stimulated HEK-A cell lysates were used to ensure that all samples were in linear range. […]

[2] = tested on: ASK1-MKK4/7-JNK3 signaling cascade; assay: In cell JNK3 activation assay (co-expression with HA-ASK1 and HA-JNK3α2, phospho-JNK Western blot); assay type: cell-based, African green monkey; conditions: for JNK3 phosphorylation in cells, YFP fusions: YFP fusions co-expressed with JNK3 and ASK1 in COS7 cells
Description: as §1
COS-7 cells were incubated with phosphatase inhibitors (50 mM NaF and 10 mM Na3VO4) in serum-free medium for 15 min at 37° C.; washed with cold PBS; and lysed with SDS lysis buffer containing 1% SDS, 10 mM Tris (pH7.4), 10 mM NaF, 100 μM Na3VO4, 2 mM EDTA, 2 mM benzamidine and 1 mM PMSF. JNKs activity was assayed by Western blotting using an antibody specific for phosphorylated JNK to detect phosphorylated (active) JNKs^17,20,23. Whole cell lysates were boiled for 5 min and centrifuged at 10,000×g for 10 min, and the supernatants were used for Western blotting. Protein was measured using the Bio-Rad Coomassie Blue assay. The proteins were resolved on 8% SD S-PAGE and transferred to PVDF membrane (Millipore, Bedford, Mass.). Blots were incubated with the primary antibodies (Cell Signaling Technology, Inc) anti-phospho-JNK, anti-JNK, anti-HA (6E2) (1:1000 to 1:5000), followed by appropriate HRP-conjugated secondary antibodies. Protein bands were detected by enhanced chemiluminescence (ECL, Pierce), followed by exposure to x-ray film. To quantify phospho-JNKs, serial dilutions of anisomycin (1 μg/ml)-stimulated HEK-A cell lysates were used to ensure that all samples were in linear range. The values for these proteins are expressed in arbitrary units.
The JNK3 activation was next tested in cells (See FIG. 7). COS7 cells were transfected with HA-ASK1, HA-JNK3α2, and YFP-arrestin constructs to measure in cell JNK3α2 activation. Phospho-JNK3 is shown as the uppermost band in the Western analysis, and was analyzed by densitometric quantification using Quantity One software (quantification in bottom panel). […] The data were statistically analyzed by ANOVA with protein as the main factor. Significance of the difference from control (p values) is indicated.
In Cell JNK3 Activation Assay COS7 African green monkey cells were sustained in DMEM solution containing 10% heat-inactivated FBS (Invitrogen), penicillin, and streptomycin at 37° C. and 5% CO2. Cells were transfected at 90-100% confluency in 6-well plates with pcDNA3-HA-ASK1 (0.4 ug), pcDNA3-HA-JNK3α2 (0.2 ug), and pcDNA3-Venus arrestin constructs (0.2-0.6 ug) at a 1:2 ratio of DNA:Lipofectamine 2000 (Invitrogen). At 48 hrs post-transfection, the cells were incubated with phosphatase inhibitors (20 mM NaF and 1 mM Na3VO4) in PBS for 15 mins, washed twice with cold PBS, and lysed using 50 mM Tris (pH 7.8), 2 mM EDTA, 250 mM NaCl, 10% Glycerol, 0.5% NP-40, 2 mM benzamide, and 1 mM PMSF. Protein concentration was measured using the Bio-Rad Quick Start™ Bovine Serum Albumin (BSA) Standard Set. The proteins were subjected to 10% SDS-PAGE and transferred to PVDF membrane (Millipore, Bedford, Mass.). Membranes were incubated with respective primary antibodies (Cell Signaling Technology, Inc.) anti-ASK1 (#3762S), anti-phospho-JNK (#9251), anti-SAPK/JNK (#9252P), anti-GST (#2625), or anti-HA (#3724), followed by the appropriate HRP-conjugated secondary antibodies. Bands were detected by x-ray film using enhanced chemiluminescence (ECL, Pierce) and quantification was done using the software Quantity One (BioRad).

In the case of “MGEKPGTRVFKKSSPNCKLTVYLGK (bovine) [T1A, first 25 residues of arrestin-3]”, the “JNK3 phosphorylation by MKK7 in cells” value [1] is reported as “necessary and sufficient to promote the signaling”, the “in cell JNK3α2 activation (phospho-JNK3 densitometry)” value ([2]; Example 2, YFP/Venus constructs with HA-ASK1, HA-JNK3α2 in COS7 cells) is reported as “facilitates JNK3 activation” and the “effect on JNK3 phosphorylation compared with full-length arrestin-3” value ([2]; YFP fusion co-expressed with JNK3 and ASK1 in COS7 cells) is reported as “greater than that of full-length arrestin-3”. For the same substance, the “JNK3 phosphorylation in cells, YFP fusions” value [2] was “also active” and the “dose-response curve of JNK3 phosphorylation” value ([2]; varying amounts of YFP-T1A with ASK1 and JNK3) was “biphasic, with a clear optimum”.

“MGDK-GTRVFKKASPNGKLTVYLGK (MGDKGTRVFKKASPNGKLTVYLGK; N-terminal MGDK; bovine) [B1A, homologous N-terminal peptide from arrestin-2, negative control]” was tested, and the “JNK3 phosphorylation in cells, YFP fusions” value [2] was “does not function as a scaffold of ASK1-MKK4/7-JNK3 cascade in cells”.
